Values after ≈ are worked out from the molar mass of the structure shown. “Also recorded” adds a separate entry of the source.
What was measured:
[1] = Variable humidity XRPD (VH-XRPD) of crystal form III; format: physicochemical
From the text: The instrument parameters are as follows:
The humidity change program settings are as follows: […]

[2] = Physical and chemical stability of crystal forms at 60° C. (closed) and 40° C./75% RH (open); format: physicochemical
Description: The physical and chemical stability of crystal forms I, III, and V at 60° C. (closed) and 40° C./75% RH (open) for 7 days were investigated respectively.
(closed) and 40° C./75% RH (open) for 3 months were investigated.

[3] = Pharmacokinetic experiments in Beagles; format: in vivo; settings: Beagle, male, PO, 10 mg/kg, plasma
Description: The present disclosure preferred crystal forms I, III, and V of the compound in the above examples for pharmacokinetic experiments in Beagles, and the relevant experiments are as follows:
Animal: 9 Beagles, male, divided into three groups with 3 in each group, weight ranging from 10 to 13 kg (source & certificate number: Beijing Marshall Biotechnology Co., Ltd., No. 1103182011000161)
Administration mode and dosage: PO: 10 mg/kg
Preparation: 0.5% CMC-Na was used as the solvent, and 400 mg of each of the three different crystal forms of compound A were weighed and added to the corresponding 79 mL of solvent, respectively. The mixture was subjected to ultrasonication for 20 minutes, added with a stirrer, and mixed thoroughly for 3 hours (the storage period from compound preparation to animal administration at room temperature was less than 6 hours). After the drug solution became a homogeneous and fine suspension, which was observed by the naked eye, the solvent was gradually added until the specified volume reached the target concentration. The preparation was stirred for 10 minutes at room temperature before administration, and stirred continuously during administration.
Time points for sampling: the time points for blood sampling in the PO group were 0.167, 0.5, 1, 2, 4, 6, 8, and 24 hours.
Animals in the PO group were fasted overnight except for free access to water before administration, and resumed food supply 4 hours after administration.
After Beagles in the […] were administered, blood was collected from Beagles by jugular vein puncture according to the time points for sampling. About 1.0 mL of blood was collected at each time point and transferred to an anticoagulant EP tube (containing 10 μL of EDTA-K2, 375 mg/mL). The tube was gently inverted three times, stored in an ice box (no more than 30 minutes), and centrifuged at 3200 g for 10 minutes at 4° C. The plasma was transferred to an ultra-low temperature refrigerator and stored until detection.
Sample pretreatment process: 40 μL of sample was taken, and 160 μL of acetonitrile solution containing 0.1% FA and 200 ng/mL of mixed standard solution was added to precipitate the protein. The mixture was vortexed and mixed well, and the sample was centrifuged in a 4° C. centrifuge at 13000 pm for 10 minutes. 100 μL of the supernatant was transferred to another 96 deep well plate, then 100 μL of methanol:water (1:3, v:v) solution containing 0.1% FA was added thereto, and the mixture was shaken and mixed for 10 minutes.
• Ion source: ion electrospray (ESI) • Ionization mode: positive ion mode (Positive) • Detection mode (mode): multiple reaction monitoring (MRM) • Ion spray voltage: 5500 V • Ion spray temperature (turbo ion spray temp): 550° C. • Curtain gas type: nitrogen setting: 35 • Collision cell gas type (CAD gas type): nitrogen setting: medium • Nebulizing gas type (gas 1): nitrogen setting: 55.00 • Auxiliary gas type (gas 2): nitrogen setting: 55.00
• Chromatographic column: poroshell 120 EC-C18 (4.6×50 mm, 2.7 μm) • Mobile phase A: 0.1% formic acid aqueous solution • Mobile phase B: a solution of 0.1% formic acid in methanol • Auto sampler wash solution (rinse port wash solution): 50% methanol • Column temperature: 40° C. • Flow rate: 0.55 mL/min • Auto sampler temperature (sample tray temp): 10° C. • Injection volume: 3 μL • Lift of presser foot (needle stroke): 49 mm • Auto sampler rinse setting (rinse pump setting): rinse port only • Auto sampler rinse mode (rinse mode): before aspiration • Auto sampler rinse volume for needle (rinse volume): 500 μL • Dip time when rinsing the injection needle (rinse dip time): 2 seconds
The data would be analyzed using WinNonlin (version 5.2.1 Pharsight, Mountain View, CA) through a non-compartmental model to obtain PK parameters (selecting Cmax, Tmax, AUClast, T1/2, and other parameters according to different routes of administration).

[4] = Crystal form (XRPD) in preparation process of coated tablets; format: physicochemical; settings: samples at stages of wet granulation and tabletting; listed as API
From the text: In order to investigate the impact of the preparation process of the preparation on the crystal form, samples were taken at different stages during the preparation process of the coated tablets according to Example 17.3 and analyzed. The analysis results are shown in Table I. The summarized results of the XRPD patterns of the products at each time point for sampling are shown in FIG. 52.
The investigation results are shown in Table J. The XRPD results of the crystal form of the coated tablet, API, and the blank excipient are shown in FIG. 53.

[5] = Solubility tests in biological media of SGF, FaSSIF and FeSSIF; format: physicochemical
Description: The instrument used for liquid chromatography analysis was Agilent HPLC 1260 series, and the analytical method is shown in the table below.
The results of solubility tests of crystal forms I, III, and V in biological media of SGF, FaSSIF, and FeSSF are as shown in Table E and FIG. 43. There was little difference in the solubility of the above three crystal forms in different biological media, and the solubility in SGF was higher than 5 mg/mL.

[6] = Dynamic vapor sorption (DVS) test; format: physicochemical
[7] = Crystal form transformation under humidity / drying (XRPD); format: physicochemical; settings: humidity or drying as stated in the value
From the text: Crystal form I can be obtained by the preparation method in Example 3. […] (FIG. 29). Combined with the DVS test results (FIG. 30), it can be seen that the mutual transformation between crystal forms I and IV is reversible.
Crystal form IV is a hygroscopic product of crystal form I under high humidity environment, and can be obtained by slurrying crystal form I or crystal form V in a mixed solvent of water/acetone with a water content of 50% to 95%.
Crystal form VI was obtained by slurrying crystal form I or crystal form V at 60° C. in a mixed solvent of water/acetone with a water content of 10% (volume ratio) at 60° C.
Crystal form VIII is a hydrate, but the hydrate is unstable.

Structure (SMILES): COC(=O)N1CCO[C@@H](Cc2c(-c3c(F)cc(S(N)(=O)=O)cc3F)nc3cc(Cl)ccn23)C1 [Crystal form III, methyl (S)-2-((7-chloro-2-(2,6-difluoro-4-sulfamoylphenyl)imidazo[1,2-a]pyridin-3-yl)methyl)morpholine-4-carboxylate]
- crystal form at 0% RH ([1]; cycle of 40% RH-0% RH-40% RH at 25° C.): completely dehydrated at 0% RH and transformed into a new crystal form, anhydrous crystal form X
- water content at which crystal form III is stable ([1]; from DVS at 40% RH and TGA): above 1.6%
- XRPD results ([1]; procedure 6: 0% RH, 720 minutes): Anhydrous crystal form X
- XRPD results ([1]; procedure 7: 0% RH, 900 minutes): Anhydrous crystal form X
- XRPD results ([1]; procedure 10: 40% RH, 120 minutes): Crystal form III
- XRPD results ([1]; procedure 11 (end): 40% RH, 240 minutes): Crystal form III
- Purity - 7 days (peak area %) ([2]; 40° C./75% RH (open)): 99.35 peak area %
- Purity - 1 month (peak area %) ([2]; 40° C./75% RH): 99.29 peak area %
- Purity - 3 months (peak area %) ([2]; 40° C./75% RH): 99.23 peak area %
- XRPD - 3 months ([2]; 40° C./75% RH): Crystal form III
- Purity - 7 days (peak area %) ([2]; 60° C. (closed)): 99.35 peak area %
- Purity - 1 month (peak area %) ([2]; 60° C.): 99.28 peak area %
- Purity - 3 months (peak area %) ([2]; 60° C.): 99.25 peak area %
- XRPD - 3 months ([2]; 60° C.): Crystal form III
- Initial purity (peak area %) [2]: 99.34 peak area %
- Initial purity (peak area %) ([2]; listed as crystal form III): 99.33 peak area %
- AUClast [3]: 14454 ± 3182 ng·h/mL
- Cmax [3]: 1159 ± 160 ng/mL
- T1/2 [3]: 12.9 ± 1.06 h
- Tmax [3]: 2.00 ± 0.00 h
- Crystal form in preparation process [4]: remained stable; also recorded: Crystal form III
- XRPD of remaining solid ([5]; FaSSIF, 0.5 h): Unchanged
- pH ([5]; FaSSIF, 0.5 h): 6.4
- XRPD of remaining solid ([5]; FaSSIF, 2 h): Unchanged
- pH ([5]; FaSSIF, 2 h): 6.4
- XRPD of remaining solid ([5]; FaSSIF, 24 h): Unchanged
- pH ([5]; FaSSIF, 24 h): 6.4
- XRPD of remaining solid ([5]; FeSSIF, 0.5 h): Unchanged
- pH ([5]; FeSSIF, 0.5 h): 4.9
- Solubility ([5]; FeSSIF, 2 h): 88 µg/mL (≈ 176 µM)
- XRPD of remaining solid ([5]; FeSSIF, 2 h): Unchanged
- pH ([5]; FeSSIF, 2 h): 4.8
- Solubility ([5]; FeSSIF, 24 h): 120 µg/mL (≈ 240 µM)
- XRPD of remaining solid ([5]; FeSSIF, 24 h): Unchanged
- pH ([5]; FeSSIF, 24 h): 4.9
- pH ([5]; SGF, 0.5 h): 1.0
- solubility at 0.5 h ([5]; simulated gastric fluid, thermodynamic from solid, SGF, 0.5 h, visual observation): > 5000 µg/mL
- DVS hygroscopicity [6]: slightly hygroscopic
- XRPD before and after the DVS test [6]: no significant change in XRPD
- DVS (wt %, 80% RH) ([6]; 25° C., 80% RH): 2.7 wt %
- DVS (wt %, 90% RH) ([6]; 25° C., 90% RH): 2.8 wt %
- adsorbed water content ([6]; range of 10 to 80% RH): about 1.2%
- crystal form transformation [7]: quickly absorbed moisture under ambient humidity and became crystal form III again

Source: US20240293420A1, “PHARMACEUTICAL COMPOSITION, PREPARATION, AND PREPARATION METHOD THEREFOR AND USE THEREOF” (WUHAN LL SCIENCE AND TECHNOLOGY DEVELOPMENT CO., LTD., priority 2021, published 2024)
